The record followed here is US20260234147A1 (priority 2023, published 2026).

Molecules are shown by their SMILES. Like-named read-outs stand apart in the source and are kept apart here.

One assay concerns the target hDOR (Homo sapiens, UniProt P41143). The assay can be described thus: Radioligand binding assay (Eurofins Cerep), [3H]DADLE displacement.
The target in another assay is hMOR (Homo sapiens, UniProt P35372). The assay can be described thus: Radioligand binding assay (Eurofins Cerep), [3H]DAMGO displacement.
hMOR, sequence (P35372 whole entry): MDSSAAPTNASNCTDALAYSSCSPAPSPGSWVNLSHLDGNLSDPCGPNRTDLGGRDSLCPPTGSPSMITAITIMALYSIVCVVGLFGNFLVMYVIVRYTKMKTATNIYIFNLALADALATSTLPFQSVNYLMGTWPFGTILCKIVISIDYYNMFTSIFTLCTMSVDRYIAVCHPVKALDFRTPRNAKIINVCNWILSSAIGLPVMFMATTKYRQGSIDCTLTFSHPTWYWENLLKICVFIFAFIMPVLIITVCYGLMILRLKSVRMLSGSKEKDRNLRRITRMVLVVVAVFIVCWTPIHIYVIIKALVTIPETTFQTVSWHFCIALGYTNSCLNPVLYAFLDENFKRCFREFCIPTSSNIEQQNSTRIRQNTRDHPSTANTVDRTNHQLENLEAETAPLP
A further assay concerns the target hKOR (Homo sapiens, UniProt P41145). The assay can be described thus: Radioligand binding assay (Eurofins Cerep), [3H]U69,593 displacement.
The target of the next assay is T1, α2A adrenergic receptor (Homo sapiens, UniProt P08913).
T1 construct: Eurofins Cerep (contract screening)
T1 sequence (P08913 1-465): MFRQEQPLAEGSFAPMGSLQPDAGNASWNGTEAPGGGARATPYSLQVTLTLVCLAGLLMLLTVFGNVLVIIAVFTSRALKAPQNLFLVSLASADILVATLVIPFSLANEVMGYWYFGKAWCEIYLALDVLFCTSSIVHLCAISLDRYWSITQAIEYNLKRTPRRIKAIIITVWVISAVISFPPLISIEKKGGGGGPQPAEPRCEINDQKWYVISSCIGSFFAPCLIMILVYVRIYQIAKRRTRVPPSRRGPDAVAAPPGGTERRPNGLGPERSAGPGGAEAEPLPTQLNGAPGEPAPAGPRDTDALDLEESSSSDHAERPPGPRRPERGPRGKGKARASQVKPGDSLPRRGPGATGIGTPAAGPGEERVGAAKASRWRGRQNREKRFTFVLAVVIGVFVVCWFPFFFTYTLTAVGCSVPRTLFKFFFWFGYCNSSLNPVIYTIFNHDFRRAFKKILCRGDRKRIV
The assay can be described thus: Radioligand binding assay (Eurofins Cerep), [3H]RX 821002 displacement.

The mark [1] stands for this setting: Table A4, data summary #2, read-out: DOR Ki ± SEM.
The mark [2] stands for this setting: Table A4, data summary #2, read-out: MOR Ki ± SEM.
[3] abbreviates: Table 3-6, 3 independent experiments, read-out: Ki (nM ± SEM) KOR.
[4] abbreviates: Table 3-6, 3 independent experiments, read-out: Ki (nM ± SEM) DOR.
Setting [5] is: Table 3-6, 3 independent experiments, read-out: Ki (nM ± SEM) MOR.
Where [6] appears, read: Ki (nM ± SEM) a2A-AR, Table 3-6, 3 independent experiments.
The mark [7] stands for this setting: Table 3-3, 3 independent experiments, read-out: Ki (nM ± SEM) KOR.
Where [8] appears, read: Table 3-3, 3 independent experiments, read-out: Ki (nM ± SEM) DOR.
Where [9] appears, read: Table 3-3, 3 independent experiments, read-out: Ki (nM ± SEM) MOR.
Where [10] appears, read: Table 3-3, 3 independent experiments, read-out: Ki (nM ± SEM) a2A-AR.
[11] abbreviates: Table B1′, read-out: KOR Ki ± SEM.
[12] abbreviates: Table B1′, read-out: DOR Ki ± SEM.
[13] abbreviates: Table B1′, read-out: MOR Ki ± SEM.
[14] abbreviates: alpha2A Ki ± SEM (nM), Table B1′.

hKOR, sequence (P41145 whole entry): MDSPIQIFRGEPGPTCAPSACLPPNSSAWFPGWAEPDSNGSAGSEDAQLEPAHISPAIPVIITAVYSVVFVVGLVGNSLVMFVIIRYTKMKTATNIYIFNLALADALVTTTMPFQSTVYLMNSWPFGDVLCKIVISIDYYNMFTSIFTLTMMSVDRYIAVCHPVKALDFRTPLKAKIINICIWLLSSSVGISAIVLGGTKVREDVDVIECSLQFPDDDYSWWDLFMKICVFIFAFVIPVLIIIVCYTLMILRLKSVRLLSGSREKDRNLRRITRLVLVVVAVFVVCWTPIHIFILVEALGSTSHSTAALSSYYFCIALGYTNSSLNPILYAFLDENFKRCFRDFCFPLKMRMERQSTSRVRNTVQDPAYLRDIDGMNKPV
hDOR, sequence (P41143 whole entry): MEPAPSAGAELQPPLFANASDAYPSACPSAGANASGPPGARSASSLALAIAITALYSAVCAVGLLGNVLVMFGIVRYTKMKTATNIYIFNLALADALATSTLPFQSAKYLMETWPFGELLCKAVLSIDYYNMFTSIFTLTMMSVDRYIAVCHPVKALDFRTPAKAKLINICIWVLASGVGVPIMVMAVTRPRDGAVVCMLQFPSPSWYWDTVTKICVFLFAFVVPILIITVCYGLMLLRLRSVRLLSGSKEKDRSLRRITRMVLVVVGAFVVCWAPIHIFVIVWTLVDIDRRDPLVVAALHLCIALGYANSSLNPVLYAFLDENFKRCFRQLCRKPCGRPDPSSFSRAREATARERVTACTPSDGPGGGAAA

Turning to `CC[C@@H]1CN2CCc3c([nH]c4cccc(OC)c34)[C@@H]2C[C@@H]1/C(=C\OC)C(=O)N(C)Cc1ccccc1` [SUSM-563, (E)-N-benzyl-2-((2S,3S,12bS)-3-ethyl-8-methoxy-1,2,3,4,6,7,12,12b-octahydroindolo[2,3-a]quinolizin-2-yl)-3-methoxy-N-methylacrylamide], the Ki is 4520 ± 1990 nM at hDOR (setting [1]) and 5750 ± 770 nM at hMOR (setting [2]).

Take `COC(=O)NC1CCN(CCc2c[nH]c3ccccc23)CC1` [Compound 3-68]: the inhibitory constant (Ki) at hKOR (setting [3]) was above 10000 nM; at hDOR (setting [4]), above 10000 nM; on hMOR (setting [5]), 1890 ± 454 nM; at α2A adrenergic receptor (setting [6]), 5090 ± 730 nM. Besides, the “SR: Selectivity Ratio (KiMOR/Kiα2A)” value on hMOR (Table 3-6) came to 0.37.

Regarding `COC(=O)CC1CCN(CCc2cn(CC(F)(F)F)c3ccccc23)CC1` [Compound 3-44], the Ki on hKOR (setting [7]) was above 10000 nM; at hDOR (setting [8]), above 10000 nM; at hMOR (setting [9]) it was 1480 ± 406 nM; at α2A adrenergic receptor (setting [10]), 1940 ± 410 nM. Moreover, the “SR: Selectivity Ratio (KiMOR/Kiα2A)” value on hMOR (Table 3-3) came out at 0.76.

`COC(=O)C=C1CCN2CCC(O)(c3cccc(OC)c3)CC2C1` (stereo not drawn) [drawing 179]: the Ki was above 10000 nM at hKOR (setting [11]), above 10000 nM at hDOR (setting [12]), above 10000 nM at hMOR (setting [13]) and 37 ± 3 nM on α2A adrenergic receptor (setting [14]).

With `COC=C(C(=O)OC)C1CCN(CCc2c[nH]c3cc(OC)ccc23)CC1` [Compound 3-39], the Ki on hKOR (Table 3-2, 3 independent experiments, read-out: Ki (nM ± SEM) KOR) was 9450 ± 2970 nM; at hDOR (Table 3-2, 3 independent experiments, read-out: Ki (nM ± SEM) DOR), above 10000 nM; on hMOR (Table 3-2, 3 independent experiments, read-out: Ki (nM ± SEM) MOR), above 10000 nM; on α2A adrenergic receptor (Ki (nM ± SEM) a2A-AR, Table 3-2, 3 independent experiments), above 10000 nM.

For the compound `COC(=O)C=C1CCN2CCC(O)(c3ccccc3)CC2C1` (stereo not drawn) [drawing 176], the Ki was 7660 ± 2670 nM on hKOR (setting [11]), above 10000 nM on hDOR (setting [12]), above 10000 nM on hMOR (setting [13]) and 155 ± 65 nM on α2A adrenergic receptor (setting [14]).

Turning to `COC(=O)CN1CCN(CCc2c[nH]c3ccccc23)CC1` [Compound 3-66], the inhibition constant (Ki) on hKOR (setting [3]) was above 10000 nM; at hDOR (Ki (nM ± SEM) DOR, Table 3-6, 3 independent experiments), above 10000 nM; on hMOR (setting [5]), 2030 ± 694 nM; on α2A adrenergic receptor (setting [6]), 9760 ± 4830 nM. Besides, the “SR: Selectivity Ratio (KiMOR/Kiα2A)” value at hMOR (Table 3-6) is on record as 0.21.

As to `COC(=O)CN1CCN(CCc2c[nH]c3cccc(OC)c23)CC1` [Compound 3-65], the Ki is above 10000 nM on hKOR (setting [3]); above 10000 nM on hDOR (setting [4]); above 10000 nM at hMOR (setting [5]); 265 ± 64.3 nM on α2A adrenergic receptor (Table 3-6, 3 independent experiments, read-out: Ki (nM ± SEM) a2A-AR).

Consider `COC(=O)CC1CCN2CCC(c3ccccc3)=CC2C1` (stereo not drawn), for which the Ki at hKOR (setting [11]) was 683 ± 142 nM; at hDOR (setting [12]), above 10000 nM; on hMOR (setting [13]) it was 7930 ± 1340 nM; on α2A adrenergic receptor (Table B1′, read-out: alpha2A Ki ± SEM) it was 5 ± 2 nM.

`COC(=O)CC1CCN(CCc2cn(CCc3c[nH]c4ccccc34)c3ccccc23)CC1` [Compound 3-45]: the Ki at hKOR (setting [7]) is above 10000 nM; on hDOR (setting [8]) it was above 10000 nM; on hMOR (setting [9]), 9280 ± 1730 nM; at α2A adrenergic receptor (setting [10]), 7030 ± 2020 nM. Further, on hMOR (Table 3-3), the “SR: Selectivity Ratio (KiMOR/Kiα2A)” value came to 1.32.

On to `COC(=O)CC1CCN2CCC(O)(c3ccccc3)CC2C1` (stereo not drawn) [SG-01-049], for which the Ki on hMOR (Table B2, mean ± SEM, 3 independent experiments, read-out: MOR Ki ± SEM) was 9810 ± 2860 nM; on α2A adrenergic receptor (Alpha2A Ki ± SEM (nM), Table B2, mean ± SEM, 3 independent experiments), 80 ± 19 nM.

In the case of `[2H]C([2H])([2H])N(C(=O)/C(=C/OC)[C@H]1C[C@H]2c3[nH]c4cccc(OC)c4c3CCN2C[C@H]1CC)C([2H])([2H])[2H]` [SUSM-566], the Ki was 1800 ± 251 nM at hKOR (Table A4, data summary #2, read-out: KOR Ki ± SEM); 8300 ± 3300 nM at hDOR (DOR Ki ± SEM (nM), Table A4, data summary #2); 330 ± 28 nM on hMOR (setting [2]); 1960 ± 535 nM on α2A adrenergic receptor (Alpha2A Ki ± SEM (nM), Table A4, data summary #2).

In the case of `CC[C@@H]1CN2CCc3c([nH]c4cccc(OC)c34)[C@@H]2C[C@@H]1/C(=C\OC)C(=O)NCc1ccccc1` [SUSM-560], the Ki on hDOR (setting [1]) is above 10000 nM; at hMOR (setting [2]) it was 5320 ± 800 nM.

Turning to `COC(=O)CC1CCN2CCC(c3ccccc3OC)=CC2C1` (stereo not drawn), the Ki on hKOR (setting [11]) is above 10000 nM; on hDOR (setting [12]), above 10000 nM; at hMOR (setting [13]), above 10000 nM; on α2A adrenergic receptor (setting [14]), 39 ± 3 nM.
